Where two headings read alike, the source gives them in different places.
Legend:
RGS7/Gβ5/R7BP complex [1] = target: T1, RGS7/Gβ5/R7BP complex (Homo sapiens, UniProt P49802); test: TR-FRET assay of RGS7/Gβ5 interaction with R7BP, inhibitors mode; format: binding
T1 sequence (P49802 1-495): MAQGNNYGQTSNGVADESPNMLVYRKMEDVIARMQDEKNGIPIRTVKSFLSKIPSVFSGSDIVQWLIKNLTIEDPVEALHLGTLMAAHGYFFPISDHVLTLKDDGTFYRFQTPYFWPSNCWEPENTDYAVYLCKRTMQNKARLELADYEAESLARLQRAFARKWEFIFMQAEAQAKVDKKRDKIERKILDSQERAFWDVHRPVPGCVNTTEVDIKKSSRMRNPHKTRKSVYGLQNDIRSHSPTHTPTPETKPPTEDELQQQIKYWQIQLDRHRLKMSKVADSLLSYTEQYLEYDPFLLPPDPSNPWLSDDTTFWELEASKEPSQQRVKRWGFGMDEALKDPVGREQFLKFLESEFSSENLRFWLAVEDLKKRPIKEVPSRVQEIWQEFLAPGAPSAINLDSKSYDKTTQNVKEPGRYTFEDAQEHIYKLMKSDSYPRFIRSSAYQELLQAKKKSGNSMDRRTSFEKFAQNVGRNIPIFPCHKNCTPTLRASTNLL
T1 sequence (O14775 43-395 partner limits assumed): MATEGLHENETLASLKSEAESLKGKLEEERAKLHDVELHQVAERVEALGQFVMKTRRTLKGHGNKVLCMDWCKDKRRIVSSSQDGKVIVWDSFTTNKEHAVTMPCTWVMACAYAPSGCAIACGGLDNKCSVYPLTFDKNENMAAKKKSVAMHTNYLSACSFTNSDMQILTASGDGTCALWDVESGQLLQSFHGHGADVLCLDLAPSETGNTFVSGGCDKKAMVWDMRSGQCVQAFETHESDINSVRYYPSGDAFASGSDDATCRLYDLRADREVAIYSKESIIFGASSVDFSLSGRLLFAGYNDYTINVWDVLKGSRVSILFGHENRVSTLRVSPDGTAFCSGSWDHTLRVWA

RGS7/Gβ5/R7BP complex [2] = target: T1, RGS7/Gβ5/R7BP complex; test: TR-FRET assay of RGS7/Gβ5 interaction with R7BP, activators mode; format: binding

**Q.** `NCCc1cc(O)c(O)cc1O` [6-hydroxydopamine] was tested. Which IC50 (RGS7/Gβ5/R7BP complex [1]; IC50, inhibition of complex formation, initial dose response studies) did it give?
**A.** 7650 ± 3740 nM

**Q.** Which results are given for `O=C1CCCN1C(=S)C(=S)N1CCCC1=O` [SR-01000319258–1, 1-[2-(2-oxopyrrolidin-1-yl)-2-sulfanylideneethanethioyl]pyrrolidin-2-one]?
**A.** IC50 (RGS7/Gβ5/R7BP complex [1]): 173 nM; maximum inhibition (RGS7/Gβ5/R7BP complex [1]; tertiary screening, first HTS campaign, concentration response curves): 54.2 ± 0.84%

**Q.** For `NC(=O)c1cc([N+](=O)[O-])cc([N+](=O)[O-])c1` [nitromide], which EC50 (RGS7/Gβ5/R7BP complex [2]) is on record?
**A.** 760 ± 100 nM

Source: publication PMC8552049 (SLAS discovery : advancing life sciences R & D, 2021)
